Molecules are shown by their SMILES.

The subject of experiment [1] is mice behavior in elevated plus maze. Put plainly: Mice Behavior in the Elevated Plus Maze (anxiolytic action). The experiment is classed as in vivo. Particulars: five minutes. An excerpt: Anxiolytic (tranquilizing) action of compounds of general formulas 1 and 2 in the test “Mice Behavior in the Elevated Plus Maze”. The length of each arm of the maze is 30 cm, width is 5 cm, and height of walls is 15 cm. Two opposite arms are closed from both sides and end faces by transparent walls, the other two arms are lit and opened. A mouse was placed in the center of maze, and for the next five minutes the number of entries into opened and closed arms and the time spent in each type of arms was registered. […] The animals usually avoid opened arms (the preference index is between 0.2 and 0.3). Compounds with tranquilizing action increase this index up to 0.5-0.6 or even more and reduce the number of defecations without changing the overall motion activity of the mice (the total number of entries to the arms).

Experiment [2] concerns the target T1, recombinant human 5-HT6 receptors (Homo sapiens, UniProt P50406).
T1 construct: expressed in transfected cells; host or cells: HeLa (membrane preparation)
Description: Competitive radioligand binding ([3H] Lysergic acid diethylamide) to membranes of HeLa cells expressing recombinant human 5-HT6 receptors. Particulars: 1.5 nM [3H] Lysergic acid diethylamide, 120 min, 37° C., HeLa cell membranes; for IC50: read-out: IC50 of serotonin 5-HT6 receptor inhibition in the setting of competitive binding; for Ki: read-out: Ki of serotonin 5-HT6 receptor inhibition in the setting of competitive binding. How it is done: Activity determination of serotonin 5-HT6 receptor antagonists of the general formula 1 in the setting of competitive binding to serotonin 5-HT6 receptors.
Screening of disclosed compounds for their potential ability to interact with serotonin 5-HT6 receptors was carried out by method of radioligand binding. For this purpose membrane species were prepared from expressing recombinant human 5-HT6 receptors HeLa cells by means of their homogenization in glass homogenizer with subsequent separation of plasmatic membranes from cell nucli, mitochondria's and cell wreckages by differential centrifugation. […] Mol Pharmacol. 43:320-327, 1993]. In the preferred embodiment membrane preparations were incubated with radioligand (1.5 nM [^3H] Lysergic acid diethylamide) without and in the presence of investigated compounds for 120 min at 37° C. in medium consisting of […], pH 7.4, 150 mM NaCl, 2 mM Ascorbic Acid, 0.001% BSA. After incubation the samples were filtered in vacuo on glass-microfiber filters G/F (Millipor, USA), filters were washed three times with cold solution of medium and radioactivity was measured by scintillation counter MicroBeta 340 (PerkinElmer, USA). Nonspecific binding which made up 30% of overall binding was determined by incubation of membrane preparations with radioligand in the presence of 5 μM Serotonin (5-HT). Methiothepin was used as positive control. Binding of tested compounds with the receptor was determined by their ability to displace the radioligand and expressed in percent of displacement. The percent of displacement was calculated according to the following equation:
[formula] wherein: TA—was overall radioactivity in the presence of radioligand only, CA—was radioactivity in the presence of radioligand and tested compound and NA—was radioactivity in the presence of radioligand and Serotonin (5 μM).
Table 4 presents the test results for some serotonin 5-HT6 receptor antagonists of general formulas 1 and 2 in the setting of competitive binding to serotonin 5-HT6 receptors, testifying their high activity towards serotonin 5-HT6 receptors.

The test system of experiment [3] is memory disturbed by Scopolamine. Put plainly: Passive Avoidance of mice in the Shuttle Chamber, memory disturbed by Scopolamine. In kind it is in vivo. Particulars: aged male BALB/c mice; Scopolamine 0.3 mg/kg, injected 30 minutes before training; retest in 22-24 hours. How it is done: A shuttle chamber (Ugo Basile, Italy) consisted of two sections was used. The walls of one section were opaque while the other section had transparent cover. The sections were connected through a hole which could be overlapped by vertical door. The floor was made of transverse metal bars on which DC current impulses could be fed. Experiments were carried out in aged male mice of BALB/c line weighing 20-24 grams.
On the first day of testing 30 minutes before training mice were injected intraintestinally with physiological solutions of Scopolamine (0.3 mg/kg) or Scopolamine in combination with active ingredient 1.1(1). Each group consisted of at least 8 animals. Animals were placed in light section, and latent period of the first entry into dark chamber was registered. Then vertical door was closed and the animal was punished by 0.6 mA DC current for 3 seconds. After that the animal was taken back to its homecage. In 22-24 hours the same animal was placed again in light section of the shuttle chamber and latent period of its first entry into dark section, the total time of its stay in light section and the number of entries into dark section, was registered. Each monitoring lasted for 5 minutes.
Testing was carried out during the day time in isolated laboratory using white noise at level of about 70 decibel above human hearing threshold. […]

The subject of experiment [4] is memory disturbed by MK-801. Description: Passive Avoidance of mice in the Shuttle Chamber, memory disturbed by MK-801. Particulars: MK-801 0.1 mg/kg, injected 30 minutes before training. The experiment is classed as in vivo. How it is done: The testing was carried out as in example 7. On the first day of testing 30 minutes before training the mice were injected intraintestinally with physiological solution of MK-801 (0.1 mg/kg). Concurrently, physiological solution of MK-801 in combination with active ingredient 1.1(1) was injected intraintestinally to independent groups of mice before training.

Another experiment has as its target T2, serotonin 5-HT6 receptor (Homo sapiens, UniProt P50406).
T2 construct: expressed in transfected cells; host or cells: HEK 293
Put plainly: Functional assay: antagonism of serotonin-induced intracellular cAMP (LANCE cAMP) in HEK 293 cells expressing 5-HT6 receptor. In kind it is cell-based. The settings on record: HEK 293 cells with expressed 5-HT6 receptor, read-out: IC50 of serotonin 5-HT6 receptor inhibition in the setting of functional assay. The procedure:
Determination of antagonistic activity of compounds of general formula 1 towards 5-HT6 receptors. Compounds of general formula 1 were tested for their ability to prevent 5-HT6 receptors activation by serotonin. HEK 293 cells (cells of human embryo's kidney) with artificially expressed 5-HT6 receptor, activation of which by serotonin leads to increasing the concentration of intracellular cAMP were used. The content of intracellular cAMP was determined using reagent kit LANCE cAMP (PerkinElmer) according to the method described by the manufacturer of the kit [http://las.perkinelmer.com/content/Manuals/MAN_LANCEcAMP384KitUser.pdf]. Effectiveness of compounds was estimated by their ability to reduce the content of intracellular cAMP induced by serotonin. Table 3 presents ICso values of serotonin 5-HT6 receptor inhibition by antagonists of general formula 1 and 2 in the setting of functional assay. The data given testify their high antagonistic activity.

T2 sequence (P50406 whole entry): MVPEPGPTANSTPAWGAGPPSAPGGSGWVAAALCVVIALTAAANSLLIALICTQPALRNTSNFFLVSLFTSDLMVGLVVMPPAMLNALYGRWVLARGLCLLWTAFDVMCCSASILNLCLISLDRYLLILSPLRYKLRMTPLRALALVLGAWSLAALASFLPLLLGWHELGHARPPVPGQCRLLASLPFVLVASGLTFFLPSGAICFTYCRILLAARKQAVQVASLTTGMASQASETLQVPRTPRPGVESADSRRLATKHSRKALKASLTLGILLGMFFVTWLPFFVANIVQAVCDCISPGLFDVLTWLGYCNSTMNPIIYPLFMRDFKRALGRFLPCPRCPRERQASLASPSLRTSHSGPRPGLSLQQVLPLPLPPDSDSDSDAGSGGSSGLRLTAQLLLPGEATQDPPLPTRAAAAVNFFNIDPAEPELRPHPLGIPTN
T1 sequence (P50406 whole entry): as above

As for `CNc1nn2c3c(cnc2c1S(=O)(=O)c1ccccc1)CCC3` [1.1(1), 2-methylamino-3-(phenylsulfonyl)-7,8-dihydro-6H-cyclopenta[e]pyrazolo[1,5-a]pyrimidine], in experiment [1], the “Anxiolytic (tranquilizing) action” value is “anxiolytic (tranquilizing) action which is comparable with the activity of Buspirone and Lorasepam”. In addition, in experiment [2], the half-maximal inhibitory concentration (IC50) was 157 pM and the inhibitory constant (Ki) was determined as 73 pM. Moreover, the “Nootropic action (enhancement of memory disturbed by Scopolamine)” value in experiment [3] is given as “nootropic action”. For the same molecule, the “Nootropic action (enhancement of memory disturbed by MK-801)” value in experiment [4] is reported as “nootropic effect”. Moreover, the IC50 on serotonin 5-HT6 receptor turned out to be 4800 pM.

For the molecule `CNc1nn2c3c(c(C)nc2c1S(=O)(=O)c1ccccc1)CCC3` [1.1(3), 5-methyl-2-methylamino-3-(phenylsulfonyl)-7,8-dihydro-6H-cyclopenta[e]pyrazolo[1,5-a]pyrimidine], the IC50 is 436 pM in experiment [2] and 7000 pM at serotonin 5-HT6 receptor. For the same molecule, in experiment [2], the inhibition constant (Ki) came out at 202 pM.

As to `CNc1nn2c(C)c3c(nc2c1S(=O)(=O)c1ccccc1)CCCC3` [2(2)], the concentration for half-maximal inhibition (IC50) came out at 551 pM in experiment [2] and 15500 pM at serotonin 5-HT6 receptor. Besides, the Ki in experiment [2] was found to be 256 pM.

Consider `CNc1nn2c3c(cnc2c1S(=O)(=O)c1ccccc1)CCCC3` [1.2(1), 2-methylamino-3-(phenylsulfonyl)-6,7,8,9-tetrahydrocyclohexa[e]pyrazolo[1,5-a]pyrimidine], for which the IC50 in experiment [2] was determined as 241 pM; on serotonin 5-HT6 receptor, 4400 pM. The inhibition constant (Ki) in experiment [2] turned out to be 112 pM.

Take `CNc1nn2c3c(c(C)nc2c1S(=O)(=O)c1ccccc1)CCCC3` [1.2(3), 5-methyl-2-methylamino-(3-phenylsulfonyl)-6,7,8,9-tetrahydrocyclohexa[e]pyrazolo[1,5-a]pyrimidine]: in experiment [2], the IC50 is 1050 pM and the inhibitory constant (Ki) is 490 pM.

`CNc1nn2cc3c(nc2c1S(=O)(=O)c1ccccc1)CCCC3` [2(1)]: in experiment [2], the half-maximal inhibitory concentration (IC50) is 1070 pM and the Ki is 499 pM. The IC50 on serotonin 5-HT6 receptor worked out at 7500 pM.

The values above are taken from US8471009B2, “(EN) 2-alkylamino-3-arylsulfonyl-cycloalcano [e OR d] pyrazolo [1,5-A]pyrimidines / antagonists of serotonin 5-HT6 receptors, methods for the production and the use thereof” (priority 2008, dated 2013).
